Source: ChEMBL document CHEMBL1137094, “Facile incorporation of urea pseudopeptides into protease substrate analogue inhibitors” (Bioorg Med Chem Lett, 2004)
Each block holds one compound with its values, some of them ahead of it.

Legend:
[1] = biological target: Human immunodeficiency virus type 1 protease (Human immunodeficiency virus 1, UniProt Q72874); assay: Inhibitory concentration against human immunodeficiency virus protease in fluorescence assay
[2] = biological target: T1, Angiotensin-converting enzyme (Sus scrofa, UniProt Q4ACT8); assay: Inhibitory concentration against porcine kidney angiotensin converting enzyme cleavage of hippuryl-histidyl-leucine (HHL)
T1 sequence (Q4ACT8 whole entry): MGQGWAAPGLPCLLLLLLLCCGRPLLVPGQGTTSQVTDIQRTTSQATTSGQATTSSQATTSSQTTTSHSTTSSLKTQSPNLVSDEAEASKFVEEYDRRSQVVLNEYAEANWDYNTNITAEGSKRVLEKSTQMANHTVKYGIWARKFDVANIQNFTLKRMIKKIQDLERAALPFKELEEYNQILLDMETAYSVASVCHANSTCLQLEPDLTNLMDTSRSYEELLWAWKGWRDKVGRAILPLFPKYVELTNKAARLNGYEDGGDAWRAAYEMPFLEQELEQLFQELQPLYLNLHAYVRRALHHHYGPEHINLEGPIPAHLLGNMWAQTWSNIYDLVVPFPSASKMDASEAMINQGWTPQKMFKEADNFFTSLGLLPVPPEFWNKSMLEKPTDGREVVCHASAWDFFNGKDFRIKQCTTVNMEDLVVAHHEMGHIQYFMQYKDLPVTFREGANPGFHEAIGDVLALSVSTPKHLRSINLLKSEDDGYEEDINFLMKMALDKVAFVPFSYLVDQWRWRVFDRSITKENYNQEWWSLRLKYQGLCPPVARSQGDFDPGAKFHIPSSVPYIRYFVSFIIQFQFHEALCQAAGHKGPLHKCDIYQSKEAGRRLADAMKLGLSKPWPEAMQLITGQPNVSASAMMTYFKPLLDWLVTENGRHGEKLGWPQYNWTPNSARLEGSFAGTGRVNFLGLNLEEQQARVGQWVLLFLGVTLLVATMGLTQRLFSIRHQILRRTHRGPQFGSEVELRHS

[3] = biological target: Human immunodeficiency virus type 1 protease (Human immunodeficiency virus 1) (UniProt Q72874); assay: Percent inhibition against human immunodeficiency virus protease in fluorescence assay; details: concentration not given here

Structure (SMILES): COC(=O)[C@@H](NC(=O)[C@@H](NC(=O)[C@H](Cc1ccccc1)NC(=O)N[C@H](Cc1ccccc1)NC(=O)[C@H](C)NC(=O)[C@H](C)N)C(C)C)C(C)C
IC50 [1]: 32.4 µM

IC50 [2]: 880 µM
Structure (SMILES): CC(C)C[C@H](NC(=O)[C@H](Cc1ccccc1)NC(=O)NCNC(=O)CNC(=O)[C@@H](N)Cc1ccc(O)cc1)C(=O)O

inhibition [3]: 35%
Structure (SMILES): COC(=O)[C@@H](NC(=O)[C@@H](NC(=O)C(Cc1ccccc1)NC(=O)N[C@H](Cc1ccccc1)NC(=O)[C@H](C)NC(=O)[C@H](C)NC(=O)OCc1ccccc1)C(C)C)C(C)C (stereo partly drawn)
